For data set [1], the system named is C57BL/6J mouse models of anemia induced by cisplatin. Put plainly: Improvement of anemia induced by cisplatin administration. Particulars: cisplatin-induced anemia mice; for Improvement of anemia (%): po. The data set is classed as in vivo. The method, then:
5. Pharmacodynamic assay
The experimental mice (SPF, […], male) were obtained from SPF (Beijing) Biotechnology Co., Ltd (permit number: SCXK (Jing) 2019-0010). All animal related experiments were conducted under a China Pharmaceutical University (the certification of using the housing facility of laboratory animals: SYXK (Su) 2018 -0019) IACUC approved protocol in compliance with the guide for the care and use of laboratory animals (number: 202013705). […]
Representative compounds and Roxadustat were formulated in normal saline solution. […]
China Pharmaceutical University (ADVIA 2120 hematology system). […]
5.3 Improvement of anemia induced by cisplatin administration
C57BL/6J mice were treated with cisplatin ( po, 7 mg·kg-1) on days 0, 7, 14, and 28 of the experiment. On the 29th day, the animals were randomized into sham, control, and treated groups (n=5). […]
treatment anemia caused by cisplatin. The mice were treated with the compounds every alternate day for 30 days. the test sample is obtained via orbital venous plexus. The hemoglobin of samples was analyzed in the center for new drug safety evaluation and research at China Pharmaceutical University (ADVIA 2120 hematology system).

Data set [2] in a line: Metabolic stability in human liver microsomes. The data set is classed as in vitro ADME.
The subject of data set [3] is plasma EPO in C57BL/6J mice. The data set can be described thus: In vivo EPO increased assay (plasma EPO ELISA). As to conditions: C57BL/6J mice, 10, 20 and 50 mg kg−1 po, 4 hours. On the set-up: species or system mouse. The protocol:
A structure of PHD2 in complex with Fe and a 2OG competing inhibitor (PDB ID: 4KBZ) was obtained from PDB website. The structure files of protein and compounds for docking were prepared using the Discovery Studio (DS) 2020 software. A water molecule HOH624, conserved in the active binding site of PHD2, was retained during the docking. Residues of PHD2 around the native ligand (radius = 10 Å) were defined as the binding sites for docking. Subsequently, the ligand was removed; the Fe (II) was retained during the docking. Compounds were docked into the binding sites using GOLD 5.1. Docking procedures were performed using the default setting with 100 genetic algorithm (GA) runs of ligands. […]
17 was preincubated with microsomes from different species (0.5 mg/mL) at 1 μM for 5 min at 37 °C in 100 mM PBS buffer (pH 7.4). […] The samples were centrifuged at 5000 rpm f or 10 min; the supernatants were then analyzed by HPLC. […]
Representative compounds and Roxadustat were formulated in normal saline solution. […] Subsequently, these samples were analyzed for reticulocytes in the center for new drug safety evaluation and research of China Pharmaceutical University (ADVIA 2120 hematology system). […]
Plasma EPO was evaluated using the erythropoietin quantikine ELISA kit for mice (MEP00B). […]
in normal saline solution. […] Plasma was collected by centrifugation at 3000 rpm, these plasmas were detected by E PO […]

For `O=C(N/N=C/c1cccc(O)c1Cl)c1cnc(-c2cccnn2)[nH]c1=O` [compound 17], in data set [1] (po 5, 10, 20 mg kg−1, every alternate day for 30 days), the “hemoglobin (Hb) levels” value is recorded as “increased in a dose‐dependent manner”. Further, the figures for the “Improvement of anemia (%)” value in data set [1] (5 mg·kg^-1), in data set [1] (10 mg·kg^-1) and in data set [1] (20 mg·kg^-1) were 31.8%, 51.5% and 90.9%, respectively. The “compound present (remaining) in liver microsomes” value in data set [2] (after 50 min, 1 μM, 0.5 mg/mL) is more than 80%. Also, the half-life at 1 μM in data set [2] (pH 7.4, read-out: t1/2 in liver microsomes) is more than 1.67 h. The “plasma EPO response” value in data set [3] was “dose‐dependent induction of EPO, similarly to Roxadustat”.

Values taken from article PMC9827864, “In Situ Inhibitor Synthesis and Screening by Fluorescence Polarization: An Efficient Approach for Accelerating Drug Discovery” (Angewandte Chemie (International Ed. in English), 2022).
